Test [1] has as its target T1, MTHFD2 recombinant human enzyme (Homo sapiens, UniProt P13995).
T1 sequence (P13995 36-350): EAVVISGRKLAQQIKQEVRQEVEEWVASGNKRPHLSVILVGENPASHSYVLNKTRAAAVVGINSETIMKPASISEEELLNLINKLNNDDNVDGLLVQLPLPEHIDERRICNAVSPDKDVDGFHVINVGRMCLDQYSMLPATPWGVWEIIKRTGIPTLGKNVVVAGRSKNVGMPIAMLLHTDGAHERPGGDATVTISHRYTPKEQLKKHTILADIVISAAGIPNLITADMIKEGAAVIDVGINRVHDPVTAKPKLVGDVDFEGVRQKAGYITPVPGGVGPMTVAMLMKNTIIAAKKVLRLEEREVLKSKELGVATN
Briefly: MTHFD2 inhibition assay (NAD(P)H-Glo luminescence). Particulars: for MTHFD1/MTHFD2 IC50 ratio: selectivity of MTHFD2 inhibition over MTHFD1, band.

Test [2] addresses T2, MTHFD1 recombinant human enzyme (Homo sapiens, UniProt P11586).
T2 sequence (P11586 2-291 limits assumed): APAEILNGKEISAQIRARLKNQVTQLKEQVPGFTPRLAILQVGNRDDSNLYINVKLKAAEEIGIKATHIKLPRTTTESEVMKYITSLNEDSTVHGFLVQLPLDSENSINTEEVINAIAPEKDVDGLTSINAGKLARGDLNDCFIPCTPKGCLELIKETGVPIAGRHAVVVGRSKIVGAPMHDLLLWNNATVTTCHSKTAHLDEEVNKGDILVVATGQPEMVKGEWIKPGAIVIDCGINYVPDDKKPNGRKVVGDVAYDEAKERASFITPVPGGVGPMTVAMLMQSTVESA
Briefly: MTHFD1 inhibition assay (NAD(P)H-Glo luminescence). Particulars: MTHFD1 IC50, recombinant human enzyme 200 nM, NADP, band.

A word on the IC50: it is the concentration that gives 50% inhibition.

Consider `COC[C@H]1CN(c2cc(C)c3c4c(c(=O)oc3c2C)CN(C(=O)c2ccc(C(=O)NS(=O)(=O)C3(C)CC3)c(N(C)C)c2)CC4)CCN1C` [Example 79, (R)-2-(dimethylamino)-4-(8-(3-(methoxymethyl)-4-methylpiperazin-1-yl)-7,10-dimethyl-5-oxo-1,3,4,5-tetrahydro-2H-chromeno[3,4-c]pyridine-3-carbonyl)-N-((1-methylcyclopropyl)sulfonyl)benzamide], for which, in test [1], the 50% inhibitory concentration (IC50) lay within 1 to 10 nM and the “MTHFD1/MTHFD2 IC50 ratio” value is given as “H (>9.0 to 30)”. The IC50 in test [2] fell in the range of 10 to 100 nM.

On to `COC[C@H]1CN(c2cc(C)c3c4c(c(=O)oc3c2C)CN(C(=O)c2ccc(C(=O)NS(=O)(=O)N(C)C)c(N3CC5CC5C3)c2)CC4)CCN1C` (stereo partly drawn) [Example 47, 2-(3-azabicyclo[3.1.0]hexan-3-yl)-N-(N,N-dimethylsulfamoyl)-4-(8-((R)-3-(methoxymethyl)-4-methylpiperazin-1-yl)-7,10-dimethyl-5-oxo-1,3,4,5-tetrahydro-2H-chromeno[3,4-c]pyridine-3-carbonyl)benzamide], for which, in test [1], the half-inhibitory concentration (IC50) was in the range of 1 to 10 nM and the “MTHFD1/MTHFD2 IC50 ratio” value is “G (^ 3 to 9.0)”. Further, in test [2], the half-inhibitory concentration (IC50) lay within 1 to 10 nM.

As to `COC[C@H]1CN(c2cc(C)c3c4c(c(=O)oc3c2C)CN(C(=O)c2ccc(C(=O)NS(=O)(=O)N3CCC(F)CC3)cc2F)CC4)CCN1C` [Example 204, (R)-3-fluoro-N-((4-fluoropiperidin-1-yl)sulfonyl)-4-(8-(3-(methoxymethyl)-4-methylpiperazin-1-yl)-7,10-dimethyl-5-oxo-1,3,4,5-tetrahydro-2H-chromeno[3,4-c]pyridine-3-carbonyl)benzamide], in test [1], the IC50 fell in the range of 10 to 100 nM and the “MTHFD1/MTHFD2 IC50 ratio” value is “J (>30)”. The IC50 in test [2] lay in the range of 1000 to 5000 nM.

Regarding `COC[C@H]1CN(c2cc(C)c3c4c(c(=O)oc3c2C)CN(C(=O)c2ccc(C(=O)NS(=O)(=O)N3CCCC3)c(N(C)C)c2F)CC4)CCN1C` [Example 138, (R)-2-(dimethylamino)-3-fluoro-4-(8-(3-(methoxymethyl)-4-methylpiperazin-1-yl)-7,10-dimethyl-5-oxo-1,3,4,5-tetrahydro-2H-chromeno[3,4-c]pyridine-3-carbonyl)-N-(pyrrolidin-1-ylsulfonyl)benzamide], in test [1], the 50% inhibitory concentration (IC50) was in the range of 10 to 100 nM and the “MTHFD1/MTHFD2 IC50 ratio” value is listed as “H (>9.0 to 30)”. The IC50 in test [2] was in the range of 100 to 1000 nM.

`COC[C@H]1CN(c2ccc3c4c(c(=O)oc3c2C)CN(C(=O)c2cc(OC3CCCC3)c(C(=O)NS(=O)(=O)C3(C)CC3)c(C(F)(F)F)c2)CC4)CCN1C` [Example 101, (R)-2-(cyclopentyloxy)-4-(8-(3-(methoxymethyl)-4-methylpiperazin-1-yl)-7-methyl-5-oxo-1,3,4,5-tetrahydro-2H-chromeno[3,4-c]pyridine-3-carbonyl)-N-((1-methylcyclopropyl)sulfonyl)-6-(trifluoromethyl)benzamide]: in test [1], the IC50 was in the range of 100 to 1000 nM and the “MTHFD1/MTHFD2 IC50 ratio” value is given as “H (>9.0 to 30)”. For the same compound, the half-inhibitory concentration (IC50) in test [2] lay in the range of 1000 to 5000 nM.

For `COC[C@H]1CN(c2cc(C)c3c4c(c(=O)oc3c2C)CN(C(=O)c2ccc(C(=O)NS(=O)(=O)N3CCCC3)c(OCC(F)(F)F)c2F)CC4)CCN1C` [Example 206, (R)-3-fluoro-4-(8-(3-(methoxymethyl)-4-methylpiperazin-1-yl)-7,10-dimethyl-5-oxo-1,3,4,5-tetrahydro-2H-chromeno[3,4-c]pyridine-3-carbonyl)-N-(pyrrolidin-1-ylsulfonyl)-2-(2,2,2-trifluoroethoxy)benzamide], in test [1], the IC50 is 10 to 100 nM and the “MTHFD1/MTHFD2 IC50 ratio” value is reported as “F (<3)”. Moreover, the 50% inhibitory concentration (IC50) in test [2] fell in the range of 10 to 100 nM.

For `COC[C@H]1CN(c2ccc3c4c(c(=O)oc3c2C)CN(C(=O)c2cc(N3CC5CC5C3)c(C(=O)NS(=O)(=O)C3(C)CC3)c(C(F)(F)F)c2)CC4)CCN1C` (stereo partly drawn) [Example 104, 2-(3-azabicyclo[3.1.0]hexan-3-yl)-4-(8-((R)-3-(methoxymethyl)-4-methylpiperazin-1-yl)-7-methyl-5-oxo-1,3,4,5-tetrahydro-2H-chromeno[3,4-c]pyridine-3-carbonyl)-N-((1-methylcyclopropyl)sulfonyl)-6-(trifluoromethyl)benzamide], in test [1], the concentration for half-maximal inhibition (IC50) lay within 100 to 1000 nM and the “MTHFD1/MTHFD2 IC50 ratio” value is reported as “H (>9.0 to 30)”. In test [2], the IC50 was more than 5000 nM.

For `COC[C@H]1CN(c2cc(F)c3c4c(c(=O)oc3c2C)CN(C(=O)c2cc(OC)c(C(=O)NS(=O)(=O)N3CCCC3)cc2F)CC4)CCN1C` [Example 309, (R)-5-fluoro-4-(10-fluoro-8-(3-(methoxymethyl)-4-methylpiperazin-1-yl)-7-methyl-5-oxo-1,3,4,5-tetrahydro-2H-chromeno[3,4-c]pyridine-3-carbonyl)-2-methoxy-N-(pyrrolidin-1-ylsulfonyl)benzamide], the figures for the half-maximal inhibitory concentration (IC50) in test [1] and in test [2] were 10 to 100 nM and 1000 to 5000 nM, respectively. The “MTHFD1/MTHFD2 IC50 ratio” value in test [1] is listed as “J (>30)”.

Turning to `COC[C@H]1CN(c2cc(C)c3c4c(c(=O)oc3c2C)CN(C(=O)c2ccc(OC3CCC3)c(C(=O)NS(=O)(=O)N3CCCC3)c2)CC4)CCN1C` [Example 163, (R)-2-cyclobutoxy-5-(8-(3-(methoxymethyl)-4-methylpiperazin-1-yl)-7,10-dimethyl-5-oxo-1,3,4,5-tetrahydro-2H-chromeno[3,4-c]pyridine-3-carbonyl)-N-(pyrrolidin-1-ylsulfonyl)benzamide], in test [1], the IC50 was 100 to 1000 nM and the “MTHFD1/MTHFD2 IC50 ratio” value was “H (>9.0 to 30)”. Besides, the 50% inhibitory concentration (IC50) in test [2] is more than 5000 nM.

Take `CCOc1c(C(=O)NS(=O)(=O)N2C3CCC2CC3)ccc(C(=O)N2CCc3c(c(=O)oc4c(Cl)c(N5CCN(C)[C@@H](COC)C5)ccc34)C2)c1F` [Example 209, (R)-N-((7-azabicyclo[2.2.1]heptan-7-yl)sulfonyl)-4-(7-chloro-8-(3-(methoxymethyl)-4-methylpiperazin-1-yl)-5-oxo-1,3,4,5-tetrahydro-2H-chromeno[3,4-c]pyridine-3-carbonyl)-2-ethoxy-3-fluorobenzamide]: in test [1], the concentration for half-maximal inhibition (IC50) fell in the range of 10 to 100 nM and the “MTHFD1/MTHFD2 IC50 ratio” value is reported as “F (<3)”. Moreover, the IC50 in test [2] fell in the range of 10 to 100 nM.

Regarding `COC[C@H]1CN(c2cc(Cl)c3c4c(c(=O)oc3c2C)CN(C(=O)c2cc(N(C)C)c(C(=O)NS(=O)(=O)N3CCCCC35COC5)cc2F)CC4)CCN1C` [Example 271, (R)-N-((2-oxa-5-azaspiro[3.5]nonan-5-yl)sulfonyl)-4-(10-chloro-8-(3-(methoxymethyl)-4-methylpiperazin-1-yl)-7-methyl-5-oxo-1,3,4,5-tetrahydro-2H-chromeno[3,4-c]pyridine-3-carbonyl)-2-(dimethylamino)-5-fluorobenzamide], the results for the IC50 in test [1] and in test [2] were 10 to 100 nM and 1000 to 5000 nM, respectively. The “MTHFD1/MTHFD2 IC50 ratio” value in test [1] is on record as “H (>9.0 to 30)”.

For `COC[C@H]1CN(c2cc(C)c3c4c(c(=O)oc3c2C)CN(C(=O)c2cc(OC3CCCC3)c(C(=O)NS(=O)(=O)N3CCCC3)cc2F)CC4)CCN1C` [Example 111, (R)-2-(cyclopentyloxy)-5-fluoro-4-(8-(3-(methoxymethyl)-4-methylpiperazin-1-yl)-7,10-dimethyl-5-oxo-1,3,4,5-tetrahydro-2H-chromeno[3,4-c]pyridine-3-carbonyl)-N-(pyrrolidin-1-ylsulfonyl)benzamide], in test [1], the IC50 lay within 10 to 100 nM and the “MTHFD1/MTHFD2 IC50 ratio” value is reported as “F (<3)”. The 50% inhibitory concentration (IC50) in test [2] fell in the range of 10 to 100 nM.

`COC[C@H]1CN(c2ccc3c4c(c(=O)oc3c2C)CN(C(=O)c2ccc(C(=O)NS(=O)(=O)N(C)C(C)C)c(N3CCCC3)c2)CC4)CCN1C` [Example 31, (R)-N-(N-isopropyl-N-methylsulfamoyl)-4-(8-(3-(methoxymethyl)-4-methylpiperazin-1-yl)-7-methyl-5-oxo-1,3,4,5-tetrahydro-2H-chromeno[3,4-c]pyridine-3-carbonyl)-2-(pyrrolidin-1-yl)benzamide]: in test [1], the IC50 was in the range of 1 to 10 nM and the “MTHFD1/MTHFD2 IC50 ratio” value is given as “G (^ 3 to 9.0)”. Besides, the IC50 in test [2] is 10 to 100 nM.

In the case of `COC[C@H]1CN(c2ccc3c4c(c(=O)oc3c2C)CN(C(=O)c2ccc(C(=O)NS(=O)(=O)N(C)C)c(OC3C[C@@H]5C[C@@H]5C3)c2)CC4)CCN1C` (mixture of isomers) [Example 113, 2-(bicyclo[3.1.0]hexan-3-yloxy)-N-(N,N-dimethylsulfamoyl)-4-(8-((R)-3-(methoxymethyl)-4-methylpiperazin-1-yl)-7-methyl-5-oxo-1,3,4,5-tetrahydro-2H-chromeno[3,4-c]pyridine-3-carbonyl)benzamide], in test [1], the IC50 lay within 100 to 1000 nM and the “MTHFD1/MTHFD2 IC50 ratio” value is reported as “F (<3)”. The concentration for half-maximal inhibition (IC50) in test [2] is 10 to 100 nM.

With `COC[C@H]1CN(c2cc(Cl)c3c4c(c(=O)oc3c2C)CN(C(=O)c2cc(OC3CC3)c(C(=O)NS(=O)(=O)N3C5CCC3COC5)cc2F)CC4)CCN1C` [Example 307, N-((3-oxa-8-azabicyclo[3.2.1]octan-8-yl)sulfonyl)-4-(10-chloro-8-((R)-3-(methoxymethyl)-4-methylpiperazin-1-yl)-7-methyl-5-oxo-1,3,4,5-tetrahydro-2H-chromeno[3,4-c]pyridine-3-carbonyl)-2-cyclopropoxy-5-fluorobenzamide], the results for the IC50 in test [1] and in test [2] were 10 to 100 nM and 1000 to 5000 nM, respectively.

(Values after patent publication US12662489B2 (Sitryx Therapeutics Limited, priority 2023, dated 2026).)
